Source: patent US10501452B2, “Lactam compound derivative and application thereof” (NHWA PHARMA. CORPORATION, priority 2015, dated 2019)
Where two headings read alike, the source gives them in different places.

Legend:
D2 = D2 (Rattus norvegicus (Rat), UniProt P61169); test: D2 receptor binding assay (3H-Spiperone)
Protocol: Rats were decapitated. Striatum of brain was rapidly taken on ice, 3 ml of buffer (0.05 M Tris-HCl buffer, containing NaCl 120 mM, KCl 5 mM, MgCl2 1 mM, CaCl2 1 mM) was added, homogenization was conducted, and then 5 ml of buffer was then added. The weight of the homogenized tubes were adjusted using a balance, and centrifugation was conducted. The supernatant was discarded, and 3 ml of buffer was added. Vortex mixer was used for blending, and then 5 ml of buffer was added. Centrifugation was conducted and repeated 3 times. The supernatant was discarded after centrifugation was completed, and the pellets were stored at −80° C. for future use.
Beckman LS-6500 Multi-function Liquid Scintillation Counter was used.
(1) The prepared membrane was applied with appropriate amount of buffer, and homogenizer was used for evenly dispersing. 15 tubes were mixed into a 100 ml container, and appropriate amount of buffer was added to give 50 ml of membrane suspension, which was reserved for future use.
(§3) (2) 100 μL of membrane preparation and 100 μL of buffer were added into each reaction tube.
(3) 100 μL of buffer was added into the total binding tube (TB), 100 μL of Butaclamol (final concentration 10^−5M) was added into the nonspecific binding tube (NB), 100 μL of the test compound (final concentration 10^−5M) was added into the specific binding tube (SB) of each test compound.
(5) Each of the reaction tubes was incubated at 37° C. for 20 min. After the reaction was completed, the bound ligands were rapidly filtered under reduced pressure, and sufficiently washed with ice-chilled assay buffer. The filter was taken out and put into a 3 ml scintillation vial, and 2 ml of toluene scintillation cocktail was added and blended.
(6) The scintillation vials were put into Liquid Scintillation Counter for counting. Inhibition rate(I%)=(Total binding tube cpm−compound cpm)/(Total binding tube cpm−nonspecific binding tube cpm)×100%
Each assay for the compounds was conducted in duplicate for two individual tests.

5-HT7 receptor = 5-HT7 receptor (Rattus norvegicus (Rat), UniProt P32305); test: 5-HT7 receptor binding assay ([3H]-5-CT); details: rat hypothalamus membrane, [3H]-5-CT
Protocol: Adult SD rats were decapitated. […] Centrifugation was conducted (repeated 3 times).
(§1) Materials for the Receptor Binding Assay

5-HT2A = 5-HT2A (Rattus norvegicus (Rat), UniProt P14842); test: 5-HT2A receptor binding assay ([3H]-Ketanserin)
5-HT2A, sequence (P14842 whole entry): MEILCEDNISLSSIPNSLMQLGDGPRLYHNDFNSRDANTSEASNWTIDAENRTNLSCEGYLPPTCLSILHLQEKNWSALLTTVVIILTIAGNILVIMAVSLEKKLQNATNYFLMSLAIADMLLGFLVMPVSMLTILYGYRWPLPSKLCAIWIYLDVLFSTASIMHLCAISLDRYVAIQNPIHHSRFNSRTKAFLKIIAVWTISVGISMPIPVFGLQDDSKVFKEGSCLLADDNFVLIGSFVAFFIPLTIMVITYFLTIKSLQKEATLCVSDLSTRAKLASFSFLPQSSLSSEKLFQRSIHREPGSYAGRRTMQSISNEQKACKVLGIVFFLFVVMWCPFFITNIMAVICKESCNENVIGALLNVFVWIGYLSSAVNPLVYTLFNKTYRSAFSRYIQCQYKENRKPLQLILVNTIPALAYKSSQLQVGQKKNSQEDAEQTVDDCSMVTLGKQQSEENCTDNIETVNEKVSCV
Protocol: Rats were decapitated. Cortex of brain was rapidly taken on ice, and 3 ml of buffer (0.05 M Tris-HCl buffer: 6.05 g of Tris was dissolved in 1000 ml of double-distilled water, and concentrated HCl was used to adjust to pH 7.5) was added, homogenization was conducted, and then 5 ml of buffer was added. Incubation was conducted at 37° C. for 10 min, the weight of the tubes were adjusted using a balance after incubation. Centrifugation was conducted at 12000 rpm, 4° C. for 20 min, the supernatant was discarded, and 3 ml of buffer was added. Vortex mixer was used for blending, and then 5 ml of buffer was added. Centrifugation was conducted (repeated 3 times). After the centrifugation, the supernatant was discarded, and the pellets were stored at −80° C. for future use.
(1) The prepared membrane was applied with buffer, and homogenizer was used for evenly dispersing. 15 tubes were mixed into a 100 ml container, and appropriate amount of buffer was added to give 50 ml of membrane suspension, which was reserved for future use.
as §3
(3) 100 μL of buffer was added into the total binding tube (TB), 100 μL of Methysergide (final concentration 10^−5M) was added into the nonspecific binding tube (NB), 100 μL of the test compound (final concentration 10^−5M) was added into the specific binding tube (SB) of each test compound.
(5) Each of the reaction tubes was incubated at 37° C. for 15 min. After the reaction was completed, the bound ligands were rapidly filtered under reduced pressure, and sufficiently washed with ice-chilled assay buffer. The filter was taken out and put into a 3 ml scintillation vial, and 2 ml of toluene scintillation cocktail was added and blended.
(6) The scintillation vial were put into Liquid Scintillation Counter for counting. Inhibition rate(I%)=(Total binding tube cpm−compound cpm)/(Total binding tube cpm−nonspecific binding tube cpm)×100%

5-HT1A = 5-HT1A (Rattus norvegicus (Rat), UniProt P19327); test: 5-HT1A receptor binding assay (3H-8-OH-DPAT); details: rat cortex membrane, 3H-8-OH-DPAT
5-HT1A, sequence (P19327 whole entry): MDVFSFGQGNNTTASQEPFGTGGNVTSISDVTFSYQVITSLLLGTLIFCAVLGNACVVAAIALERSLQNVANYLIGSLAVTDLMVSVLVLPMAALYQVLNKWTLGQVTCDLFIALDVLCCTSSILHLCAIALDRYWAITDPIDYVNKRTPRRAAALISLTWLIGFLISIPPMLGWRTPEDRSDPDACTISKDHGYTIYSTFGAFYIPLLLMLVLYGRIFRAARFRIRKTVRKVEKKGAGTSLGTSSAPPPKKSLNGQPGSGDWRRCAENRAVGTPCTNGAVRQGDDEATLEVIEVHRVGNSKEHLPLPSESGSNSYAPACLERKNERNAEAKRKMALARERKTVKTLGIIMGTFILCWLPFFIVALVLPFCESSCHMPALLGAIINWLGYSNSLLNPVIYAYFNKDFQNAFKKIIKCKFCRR
Protocol: Rats were decapitated. […] Incubation at 37° C. was conducted for 10 min. […] Centrifugation was conducted and repeated 3 times.
as §1

Histamine H1 receptor = Histamine H1 receptor (Cavia porcellus (Guinea pig), UniProt P31389); test: Histamine H1 receptor binding assay (3H-pyrilamine); details: guinea pig cerebellum membrane, 3H-pyrilamine
Histamine H1 receptor, sequence (P31389 whole entry): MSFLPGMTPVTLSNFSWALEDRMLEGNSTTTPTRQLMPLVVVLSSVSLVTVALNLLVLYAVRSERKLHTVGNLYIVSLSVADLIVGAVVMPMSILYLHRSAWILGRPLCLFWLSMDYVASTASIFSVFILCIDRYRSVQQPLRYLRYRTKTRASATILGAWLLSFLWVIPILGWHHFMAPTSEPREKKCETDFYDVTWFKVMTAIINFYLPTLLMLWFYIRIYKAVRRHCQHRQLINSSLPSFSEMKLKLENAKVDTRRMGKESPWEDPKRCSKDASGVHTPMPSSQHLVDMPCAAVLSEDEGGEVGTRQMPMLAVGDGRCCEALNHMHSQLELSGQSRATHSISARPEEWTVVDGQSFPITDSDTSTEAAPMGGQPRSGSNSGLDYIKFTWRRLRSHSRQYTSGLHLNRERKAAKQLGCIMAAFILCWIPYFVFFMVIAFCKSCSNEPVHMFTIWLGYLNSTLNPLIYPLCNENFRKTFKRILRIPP
Protocol: Preparation of Histamine H1 Receptor Membrane
Guinea pigs were decapitated. […] Vortex mixer was used for blending. Centrifugation was conducted at 48000 g, 4° C. for 10 min. The supernatant was discarded to give pellets, and buffer was added again for washing. Centrifugation was conducted and repeated 3 times.
as §1
(2) 100 μL of membrane preparation was added into each reaction tube.

[1] = system: Apomorphine induced clambering in mice; test: Apomorphine induced clambering assay of mice; assay type: in vivo; details: Mus musculus; mice, po; read-out: Apomorphine induced clambering (ED50, po, mg/kg)
Protocol: Healthy KM mice, male, with body weight of 18-22 g, were provided by Qinglongshan Animal Cultivation Center, Nanjing.
Apomorphine provided by Sigma Company was dissolved in 0.9% NaCl (containing 0.1% vitamin C) before use, and was freshly formulated before use.
Vitamin C, F20061113, was provided by Sinopharm Chemical Reagent Co. Ltd.
Instruments: self-made clambering cage, chronograph.
Procedures: apomorphine induced clambering assay of mice
After 5 min of adaptation, the behavior of the mice at 10-11, 20-21, and 30-31 min after the injection of apomorphine were observed and scored.

[2] = system: MK-801 induced high activity in mice; test: MK-801 induced high activity; assay type: in vivo; details: Mus musculus, po
Protocol: Ascorbic acid was provided by Sinopharm Chemical Reagent Co. Ltd.
Subsequently, the spontaneous activities of the mice of each group in 90 min were measured.

catalepsy in mice = test: Catalepsy assay; details: mice, ratio of ED50 values
Protocol: (§2) The durations of the mice to maintain the posture with the two forepaws on the bars were recorded, and 30 s of spasticity without moving was considered as the positive response. In the case the forepaws of the mice were not put down persistently, the observation was terminated at 60 s. The numbers of animals with positive response in each of the compound dosage groups were counted.

Catalepsy assay = details: both, Kunming, mouse, in vivo, po
Protocol: as §2

[3] = Acute toxicity study (rats); details: both sexes, KM, in vivo, po, 2000 mg/kg; rat, intragastric
Protocol: Example 41: Acute Toxicity Study
Limit test of sequential assay: KM rats or mice (half male and half female) were randomly divided into several groups (with 2-5 mice in each group), which were respectively the 2000 mg/kg groups for each compound, and the solvent group. 0.2 ml/10 g were administered intragastrically. The deaths of the animals in 3 days were observed. In the case 3 or more animals survived in 3 days without notable abnormity in their life states, the observation was continued until the assay was completed in 7 days. In the case 3 or more animals died in 3 days, the method of median lethal dose was used to determine the LD50.
Results: The compound of the invention has relatively low acute toxicity.

[4] = read-out: Ki (nM) D2, rat striatum membrane, 3H-Spiperone
[5] = read-out: Ki (nM) 5-HT2A, rat cortex membrane, [3H]-Ketanserin

5-HT7 receptor, sequence (P32305 whole entry): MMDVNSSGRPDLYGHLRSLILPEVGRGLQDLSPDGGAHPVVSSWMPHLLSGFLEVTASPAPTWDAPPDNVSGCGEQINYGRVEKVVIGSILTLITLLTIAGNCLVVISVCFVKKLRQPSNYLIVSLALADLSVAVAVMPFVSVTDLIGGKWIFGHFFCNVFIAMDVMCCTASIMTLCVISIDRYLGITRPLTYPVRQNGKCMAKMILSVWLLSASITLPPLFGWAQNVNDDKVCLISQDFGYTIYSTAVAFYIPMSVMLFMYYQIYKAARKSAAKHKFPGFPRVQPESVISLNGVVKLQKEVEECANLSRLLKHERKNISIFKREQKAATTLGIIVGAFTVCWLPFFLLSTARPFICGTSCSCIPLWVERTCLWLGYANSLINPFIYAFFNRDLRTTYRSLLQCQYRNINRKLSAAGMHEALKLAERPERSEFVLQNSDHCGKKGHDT
D2, sequence (P61169 whole entry): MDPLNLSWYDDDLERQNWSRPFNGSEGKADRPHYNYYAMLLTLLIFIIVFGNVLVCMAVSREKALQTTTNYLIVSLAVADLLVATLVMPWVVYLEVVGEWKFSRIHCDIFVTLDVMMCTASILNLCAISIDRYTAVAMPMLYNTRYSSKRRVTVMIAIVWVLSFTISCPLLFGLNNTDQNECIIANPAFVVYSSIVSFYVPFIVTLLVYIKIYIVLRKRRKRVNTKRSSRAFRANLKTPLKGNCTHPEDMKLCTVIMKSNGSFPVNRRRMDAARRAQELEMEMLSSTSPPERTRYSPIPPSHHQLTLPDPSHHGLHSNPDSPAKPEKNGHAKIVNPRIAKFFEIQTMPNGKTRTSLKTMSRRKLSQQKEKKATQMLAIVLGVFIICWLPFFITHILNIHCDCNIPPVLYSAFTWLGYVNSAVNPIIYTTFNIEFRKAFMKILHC

SMILES | Ki (D2; [4]) | Ki (5-HT7 receptor) | Ki (5-HT2A; [5]) | Ki (5-HT1A) | Ki (Histamine H1 receptor) | also measured
CN1CCc2ccc(OCC(O)CN3CCC(c4noc5cc(F)ccc45)CC3)cc2C1=O (centres unmarked) [Compound 4, 7-(3-(4-(6-fluorobenzo[d]isoxazol-3-yl)piperidin-1-yl)-2-hydroxypropoxy)-2-methyl-3,4-dihydroisoquinolin-1(2H)-one] | 15.1 nM | 10.2 nM | 15.9 nM | 3.9 nM | > 2000 nM | –
CN1CCc2ccc(OCCCCN3CCN(c4cccc(C(F)(F)F)c4)CC3)cc2C1=O [Compound 3, 2-methyl-7-(4-(4-(3-(trifluoromethyl)phenyl)piperazin-1-yl)butoxy)-3,4-dihydroisoquinolin-1 (2H)-one] | 17.2 nM | 23.6 nM | 9.9 nM | 11.8 nM | – | –
Cn1cnc2ccc(OCCCCN3CCN(c4cccc(C(F)(F)F)c4)CC3)cc2c1=O [Compound 28, 3-methyl-6-(4-(4-(3-(trifluoromethyl)phenyl)piperazin-1-yl)butoxy)quinazolin-4(3H)-one] | 24.8 nM | 7.4 nM | 5.8 nM | 12.2 nM | > 2000 nM | –
CC1CN(C)C(=O)c2cc(OCCCN3CCC(c4noc5cc(F)ccc45)CC3)ccc21 (centres unmarked) [Compound 10, 7-(3-(4-(6-fluorobenzo[d]isoxazol-3-yl)piperidin-1-yl)propoxy)-2,4-dimethyl-3,4-dihydroisoquinolin-1(2H)-one] | 5.8 nM | 8.4 nM | 12.9 nM | 4.6 nM | > 2000 nM | –
O=C(CCCN1CCC(O)(c2ccc(Cl)cc2)CC1)c1ccc(F)cc1 [haloperidol, reference compound] | – | – | – | – | – | ED50 [1]: 0.08 mg/kg; ED50 [2]: 0.1 mg/kg; Catalepsy/Apomorphine induced clambering (catalepsy in mice): 4.89; Catalepsy/MK-801 induced high activity (catalepsy in mice): 4.40; ED50 (Catalepsy assay): 0.44 mg/kg
CN1CCc2ccc(OCCCN3CCN(c4cccc5sccc45)CC3)cc2C1=O [B, reference compound] | – | 579 nM | – | – | 139 nM | –
Cn1c(=O)c2cc(OCCCN3CCN(c4cccc5sccc45)CC3)ccc2n(C)c1=O [D, reference compound] | 25.5 nM | 606 nM | – | – | 154 nM | –
Cc1nc2n(c(=O)c1CCN1CCC(c3noc4cc(F)ccc34)CC1)CCCC2 [risperidone, reference compound] | – | – | – | – | – | LD50 at 3 days [3]: 113 mg/kg
CCN1CCc2ccc(OCCCN3CCC(c4noc5cc(F)ccc45)CC3)cc2C1=O [Compound 7, 7-(3-(4-(6-fluorobenzo[d]isoxazol-3-yl)piperidin-1-yl)propoxy)-2-ethyl-3,4-dihydroisoquinolin-1(2H)-one] | 13.1 nM | 12.7 nM | 0.9 nM | 1.9 nM | > 2000 nM | –
O=C1NCCc2ccc(OCCCN3CCN(c4cccc(Cl)c4Cl)CC3)cc21 [A, reference compound] | 21.2 nM | 254 nM | 29.2 nM | 14.3 nM | 89.6 nM | –
O=C1NCCc2ccc(OCCCN3CCN(c4ccc5sccc5c4)CC3)cc21 [C, reference compound] | – | 500 nM | – | – | 138 nM | Ki (D2): 35.2 nM
CN1CCc2ccc(OCCCN3CCC(C(=O)c4ccc(F)cc4)CC3)cc2C1=O [Compound 25, 7-(3-(4-(4-fluorobenzoyl)piperidin-1-yl)propoxy)-2-methyl-3,4-dihydroisoquinolin-1(2H)-one] | 32.8 nM | 10.8 nM | 21.7 nM | 17.6 nM | > 2000 nM | –
O=C1NCCc2ccc(OCCCN3CCC(c4noc5cc(F)ccc45)CC3)cc21 [Compound 12, 7-(3-(4-(6-fluorobenzo[d]isoxazol-3-yl)piperidin-1-yl)propoxy)-3,4-dihydroisoquinolin-1(2H)-one] | 10.4 nM | 8.9 nM | 5.5 nM | 19.3 nM | > 2000 nM | –
CN1CCc2ccc(OCCCCN3CCC(c4noc5cc(F)ccc45)CC3)cc2C1=O [Compound 1, 7-(4-(4-(6-fluorobenzo[d]isoxazol-3-yl)piperidin-1-yl)butoxy)-2-methyl-3,4-dihydroisoquinolin-1(2H)-one] | 12.5 nM | 12.5 nM | 18.9 nM | 15.8 nM | – | –
CN1CCc2ccc(OCCCN3CCN(c4ccccc4F)CC3)cc2C1=O [Compound 20, 7-(3-(4-(2-fluorophenyl)piperazin-1-yl)propoxy)-2-methyl-3,4-dihydroisoquinolin-1(2H)-one] | 54.8 nM | 29.9 nM | 32.1 nM | 24.5 nM | > 2000 nM | –
O=C1CCc2ccc(OCCCCN3CCC(c4noc5cc(F)ccc45)CC3)cc2N1 [E, reference compound] | – | 35.6 nM | – | 23.2 nM | 178 nM | Ki (D2): 5.6 nM; Ki (5-HT2A): 12.7 nM
CN1CCN(C2=Nc3cc(Cl)ccc3Nc3ccccc32)CC1 [clozapine, reference compound] | – | – | – | – | – | ED50 [1]: 17.9 mg/kg; ED50 [2]: 2.28 mg/kg; Catalepsy/Apomorphine induced clambering (catalepsy in mice): >5.58; Catalepsy/MK-801 induced high activity (catalepsy in mice): >21.93; ED50 (Catalepsy assay): > 50 mg/kg
Cc1cc(OCCCN2CCC(c3noc4cc(F)ccc34)CC2)cc2c1CCN(C)C2=O [Compound 8, 7-(3-(4-(6-fluorobenzo[d]isoxazol-3-yl)piperidin-1-yl)propoxy)-2,5-dimethyl-3,4-dihydroisoquinolin-1(2H)-one] | 8.7 nM | 6.7 nM | 2.4 nM | 2.8 nM | > 2000 nM | –
CN1CCc2c(F)cc(OCCCN3CCC(c4noc5cc(F)ccc45)CC3)cc2C1=O [Compound 9, 5-fluoro-7-(3-(4-(6-fluorobenzo[d]isoxazol-3-yl)piperidin-1-yl)propoxy)-2-methyl-3,4-dihydroisoquinolin-1(2H)-one] | 3.1 nM | 7.9 nM | 3.7 nM | 3.9 nM | > 2000 nM | –
CN1COc2ccc(OCCCN3CCC(c4noc5cc(F)ccc45)CC3)cc2C1=O [Compound 11, 6-(3-(4-(6-fluorobenzo[d]isoxazol-3-yl)piperidin-1-yl)propoxy)-3-methyl-2H-benzo[e][1,3]oxazin-4(3H)-one] | 13.9 nM | 11.2 nM | 3.6 nM | 24.6 nM | > 2000 nM | –
Cc1nc2ccc(OCCCN3CCN(c4cccc(C(F)(F)F)c4)CC3)cc2c(=O)n1C [Compound 31, 2,3-dimethyl-6-(3-(4-(3-(trifluoromethyl)phenyl)piperazin-1-yl)propoxy)quinazolin-4(3H)-one] | 21.8 nM | 8.3 nM | 9.8 nM | 19 nM | > 2000 nM | –
